System: JEKO-1
Assay: cells
Parameters: species or system cell viability; MTT cell viability assay, absorbance 570/650 nm; IC50 by linear interpolation of concentration-response curve
Details: Homo sapiens, JeKo-1, 48 h; read-out: IC 50 values
Protocol: Supplementary file pone.0015479.s006.doc: Table S2 A list of compounds tested in this study. JEKO-1 cells were treated with each of the listed compounds at concentrations ranging from 1.25 µM to […]. Cell viability was determined by the MTT assay and used to obtain concentration-response curve. IC50 was extracted by linear interpolation. Click here for additional data file. HeLa and 293T cells from ATCC were maintained according to the standard procedures. JEKO-1 cells were kept in RPMI, 10% FCS as previously described. NOXA and control stable knock-down JEKO-1 cells were described previously. PBMC from normal volunteers were obtained from the Department of Transfusion Medicine, NIH and PBMC from CLL patients were obtained under NIH protocol 97-C-0178 with informed consent. Transfection was done with lipofectamine 2000 (Invitrogen) for 293T accordingly to manufacture's instruction. Pulse chase and denaturing immunoprecipitation were carried out as described previously, [48]. Subcellular fractionation experiments were carried out as previously described. Briefly, HeLa cells were harvested and washed with phosphate-buffered saline. Cells were then treated on ice with the buffer PB (25 mM Hepes, pH 7.2, 115 mM potassium acetate, 5 mM sodium acetate, 2.5 mM magnesium acetate, 0.5 mM EGTA, and a protease inhibitor cocktail) that also contain 0.028% digitonin. Cells were centrifuged at 20,000×g for 10 min. The cytosolic supernatant fraction was removed and the nucleus and membrane pellet fraction was washed twice with the PB buffer. The pellet fraction was finally resuspended in the PB buffer. The fluorescence intensity in these fractions was measured by the Victor 3 plate reader using the Ex482 and Em523 filter set. […] After 4 h incubation, the sample absorbance at 570 nm and […] were measured using a Victor 3 plate reader (Perkin Elmer, Waltham, MA) and ratio of drug-treated samples vs. the untreated control was used to determine cell viability. […] Fluorescence labeled secondary antibodies (Invitrogen, Carlsbad, CA) were used for detection. […]

Row | SMILES | IC50
1 | CN(C)c1ccc(/C=C/C=N/NC(=O)CN2C(=O)N(c3ccc(Cl)cc3)C(N(O)C(=O)Nc3ccc(Cl)cc3)C2(C)C)cc1 (stereo not drawn) [CBU-059] | > 40 µM
2 | O=C(CCCC[C@@H]1SC[C@@H]2NC(=O)N[C@@H]21)N/N=C/C=C/c1ccc([N+](=O)[O-])o1 [CBU-032] | 25 µM
3 | CC1(C)C(N(O)C(=O)Nc2ccc(Cl)cc2)N(c2ccc(Cl)cc2)C(=O)N1CC(=O)N/N=C/C=C/c1ccc([N+](=O)[O-])o1 (stereo not drawn) [EerI, Eeyarestatin I] | 3.5 µM
